From patent US20110112299A1, “TETRACYCLIC COMPOUND” (KYOWA HAKKO KIRIN CO., LTD., priority 2008, published 2011)
One block for each molecule: values may come before it.

How the values were obtained:
[1] = test system: IL-1β induced IL-6 production (A549 cells); assay: Inhibition assay for IL-1β induced IL-6 production in A549 cells (Test Example 3); type: cell-based, human; settings: Homo sapiens, at a concentration of 100 nmol/L, IL-1β stimulation, relative to dexamethasone, read-out: IL-6 production inhibitory activity
Experimental: A549 cells cultured in F-12 medium supplemented with 10% bovine serum for 3 to 5 days were transferred to a 96-well plate (50000 cells/well) and then were cultured overnight. […] After the medium was removed by suction, 60 μL of F-12 medium was added to each well, and 20 μL of the test compound diluted to 5-fold of the desired concentration with F-12 medium or 20 μL of 4 μmol/L dexamethasone was added thereto. The test compound and the dexamethasone used here were prepared beforehand by dissolving in dimethyl sulfoxide (DMSO) and diluting with F-12 medium so that the final concentration of DMSO became 0.1% v/v or lower. After 30-minute incubation under 5% CO2 atmosphere at 37° C., 20 μL of 4 nmol/L IL-1β diluted with F-12 medium was added to each well, and then incubation was performed under a 5% CO2 atmosphere at 37° C. for 12 to 18 hours. The 96-well plate was centrifuged at 300×g at 4° C. for 5 minutes, and then the culture supernatant was collected for use as a sample for IL-6 measurement. The IL-6 produced in the culture supernatant was quantified by the ELISA method (R&D Systems, product number: DY206, DouSet ELISA Development System Human IL-6), and the production inhibition rate was calculated by the following formula. […]

[2] = target: T1, recombinant human glucocorticoid receptor (Homo sapiens, UniProt P04150); assay: Human glucocorticoid receptor assay (2) (fluorescence polarization, Test Example 5); type: binding; settings: for selectivity for human glucocorticoid receptor over progesterone receptor: from the results of Test Examples 5 and 6
T1 construct: purchased Panvera/Invitrogen P2812 (kit P2893)
T1 sequence (P04150 1-777): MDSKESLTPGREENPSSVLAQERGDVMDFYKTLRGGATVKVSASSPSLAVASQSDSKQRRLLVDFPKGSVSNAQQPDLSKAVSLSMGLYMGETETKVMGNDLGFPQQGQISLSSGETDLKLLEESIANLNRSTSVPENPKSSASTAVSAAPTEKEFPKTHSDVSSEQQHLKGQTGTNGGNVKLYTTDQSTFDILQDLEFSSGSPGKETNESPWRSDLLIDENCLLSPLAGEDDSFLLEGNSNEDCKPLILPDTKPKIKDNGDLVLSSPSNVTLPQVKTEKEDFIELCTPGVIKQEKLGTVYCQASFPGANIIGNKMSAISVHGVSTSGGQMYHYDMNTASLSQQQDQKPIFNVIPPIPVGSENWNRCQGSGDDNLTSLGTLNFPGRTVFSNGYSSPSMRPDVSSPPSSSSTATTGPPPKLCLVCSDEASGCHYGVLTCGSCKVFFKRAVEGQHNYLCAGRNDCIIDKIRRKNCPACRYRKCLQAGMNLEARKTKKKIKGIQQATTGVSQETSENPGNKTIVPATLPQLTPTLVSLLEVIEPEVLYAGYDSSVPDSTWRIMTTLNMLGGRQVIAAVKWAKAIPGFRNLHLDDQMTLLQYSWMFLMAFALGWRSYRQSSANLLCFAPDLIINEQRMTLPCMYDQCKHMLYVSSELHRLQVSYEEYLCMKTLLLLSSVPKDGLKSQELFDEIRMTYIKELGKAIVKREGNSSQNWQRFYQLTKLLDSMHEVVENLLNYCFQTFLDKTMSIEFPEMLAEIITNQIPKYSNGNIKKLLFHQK
Experimental: In this assay, a fluorescence polarization assay kit (Panvera/Invitrogen, product number: P2893) was used. The recombinant human glucocorticoid receptor (product number: P2812), the Fluoromore (trademark)-labeled dexamethasone (GS Green, product number: P2813), the stabilizing peptide solution (product number: P2815), and the basic buffer solution (product number: P2814) which were used in the assay kit had been stored at −80° C. until used. A buffer solution for the assay was prepared by adding the basic buffer solution (10 fold dilution), the stabilizing peptide solution (10 fold dilution), and 1 mol/L DTT (dithiothreitol) (1000 fold dilution to give a final concentration of 1 mmol/L).
The assay was performed as follows. The test compound was diluted to 2-fold of the desired concentration with the buffer solution for the assay, and 16 μL of that was added to each well. Next, the Fluoromore (trademark)-labeled dexamethasone was diluted with the buffer solution for the assay so as to be 4 nmol/L, and 8 μL of that was added to each well. Further, the recombinant human glucocorticoid receptor was diluted with the buffer solution for the assay so as to be 16 nmol/L, and 8 μL of that was added to each well. After stirring the mixture, the mixture was incubated under a light-shielded condition at room temperature for 2 hours or more. The fluorescence polarization value of each well was measured using a plate reader (PerkinElmer, Fusion or Envision). To a negative control group, the compound was not added. To a positive control group, dexamethasone was added so as to give a final concentration of 1 μmol/L. The glucocorticoid receptor binding inhibitory rate (%) was calculated by the following formula.
Glucocorticoid receptor binding inhibitory rate (%)=100×[1−(fluorescence polarization value of test compound solution−fluorescence polarization value of positive control solution)/(fluorescence polarization value of negative control solution−fluorescence polarization value of positive control solution)]

[3] = test system: transcription-promoting activity via the glucocorticoid receptor (A549/MMTV-LTR cells); type: cell-based; settings: at a concentration of 300 nmol/L; relative to dexamethasone
Experimental: A pGL4.14 plasmid (Promega, product number: AY864928) having a cloned MMTV-LTR fragment upstream of the luciferase gene (−200 to +100 relative to the transcription initiation site) was introduced into A549 cells, and the obtained strain which is constitutively resistant to a selective antibiotic hygromycin B (A549/MMTV-LTR) was used for evaluation. The A549/MMTV-LTR cells were transferred to a 96-well plate (25000 cells/well) and were cultured overnight. […] Next, 20 μL of the test compound diluted to 5-fold of the desired concentration with F-12 medium or 20 μL of 4 μmol/L dexamethasone was added thereto, and the mixture was incubated under 5% CO2 at 37° C. for 6 hours. To each well, 50 μL of a luminescence reagent (Promega, product number: E2550 or E2650) was added, and the mixture was stirred to dissolve the cells, and the luciferase activity was measured by a plate reader (PerkinElmer, TopCount).
MMTV activity (%)=100×(luminescence amount in the presence of the compound−luminescence amount in the absence of the compound)/(luminescence amount in the presence of dexamethasone−luminescence amount in the absence of the compound)

- inhibition at 0.1 µM ([2]; at a concentration of 100 nmol/L, read-out: glucocorticoid receptor binding inhibitory activity): ≥ 80%
SMILES: CC/C(C(=O)Nc1nccs1)=C1\c2cc3cnn(-c4ccc(F)cc4)c3cc2COc2ccccc21 [Compound 89, (Z)-1-(4-fluorophenyl)-5-{1-[(thiazole-2-yl)aminocarbonyl]propylidene}-5,11-dihydro-1H-indazolo[5,6-e]benzo[b]oxepin]
- inhibition at 0.1 µM [1]: ≥ 80%

SMILES: C[C@]12C=CC(=O)C=C1CC[C@@H]1[C@@H]2[C@@H](O)C[C@@]2(C)[C@H]1CC[C@]2(O)C(=O)CO [prednisolone, reference compound]
- MMTV activity [3]: ≥ 80%

SMILES: CC/C(=C1\c2cc3cnn(-c4ccc(F)cc4)c3cc2COc2ncccc21)c1cccc(NS(C)(=O)=O)c1 [Compound 43, (Z)-1-(4-fluorophenyl)-5-{1-[3-(methanesulfonamide)phenyl]-propylidene}-5,11-dihydro-1H-indazolo[5,6-e]pyrido[2,3-b]oxepin]
- selectivity for human glucocorticoid receptor over progesterone receptor [2]: selective binding activity to human glucocorticoid receptors

SMILES: CC/C(=C1\c2cc3cnn(C(C)C)c3cc2COc2ncccc21)c1cccc(NS(C)(=O)=O)c1 [Compound 25, (Z)-1-isopropyl-5-{1-[3-(methanesulfonamide)phenyl]propylidene}-5,11-dihydro-1H-indazolo[5,6-e]pyrido-[2,3-b]oxepin]
- selectivity for human glucocorticoid receptor over progesterone receptor [2]: selective binding activity to human glucocorticoid receptors

SMILES: C[C@@H]1C[C@H]2[C@@H]3CCC4=CC(=O)C=C[C@]4(C)[C@@]3(F)[C@@H](O)C[C@]2(C)[C@@]1(O)C(=O)CO [dexamethasone, reference compound]
- MMTV activity [3]: ≥ 100%

SMILES: CC/C(=C1\c2cc3cnn(C(C)C)c3cc2COc2ccccc21)c1cccc(NS(C)(=O)=O)c1 [Compound 8, (Z)-5-{1-[3-(methanesulfonamide)phenyl]propylidene}-1-isopropyl-5,11-dihydro-1H-indazolo[5,6-e]benzo[b]oxepin]
- MMTV activity [3]: 22%

SMILES: CC/C(=C1\c2cc3cnn(C4CC4)c3cc2COc2ncccc21)c1cccc(NS(C)(=O)=O)c1 [Compound 34, (Z)-1-cyclopropyl-5-{1-[3-(methanesulfonamide)phenyl]propylidene}-5,11-dihydro-1H-indazolo[5,6-e]pyrido[2,3-b]oxepin]
- MMTV activity [3]: 25%
- selectivity for human glucocorticoid receptor over progesterone receptor [2]: selective binding activity to human glucocorticoid receptors
